Source: patent US9428542B2, “Lupane triterpenoid derivatives and pharmaceutical use thereof” (priority 2012, dated 2016)
Where two headings read alike, the source gives them in different places.

Columns and labels:
HIV-1IIIB = experiment: HIV-1 full replication assay (HIV-1IIIB-infected MT-2 cells, supernatant read out on TZM-bl cells, β-Gal); type: cell-based
Protocol: The antiviral activity of the compounds of the present invention was determined in a HIV-1 full replication assay.
In this assay, MT-2 cells that are infected with HIV-1IIIB were co-cultured with different concentration of the tested compounds for 3 days and then supernatant is transferred into new 384-well plates containing TZM-bl cells (also called JC53-bl). TZM-bl cells that could be infected by various kinds of HIV-1 strains stably express a great amount of HIV-1 receptor, co-receptor CD4 molecular, and co-receptor CXCR4 and CCR5. TZM-bl cells harbor LTR-luciferase and β-gal two report genes. The expression of luciferase and β-gal reporter directed by HIV-1 LTR can be activated by Tat protein generated after HIV infection, and the quantity of expression is proportional to the quantity of HIV-1. Compounds that interfere with virus replication in MT-2 cells, maturation of the virus, or post-entry steps in the HIV lifecycle decrease the luciferase signal or β-gal signal. In this experiment, BVM (Bevirimat, PA-457) is used as a positive control drug.
Method for Inhibiting HIV-1 Replication Assay:
The MT-2 cells are infected at a Multiciplicity (MOI) of 0.01 TCID50, and then the MT-2 cells suspension was diluted to a needed concentration. 90 μl of the MT-2 cells suspension from above was added into 384-well plates containing 10 μl of the tested compounds.
Compounds were dissolved in DMSO and tested as 11 points 3-fold serial dilutions. After addition of cells to compound plates, plates were placed to humidified 5% CO2 37 incubator for 3 days. 10 μl of cells culture supernatant from the incubated plates was transferred into new black 384-well plates.
Adjusted the TZMb1 cells concentration and 40 μl of TZMb1 cells was added into each well in the black 384-well plates. After addition of the TZMb1 cells to the black plates, black plates were placed to humidified 5% CO2 37 incubator for 24 h, then β-Gal activity was measured.
The anti viral activity %=(measured number-lowest mean number)/(highest mean number-lowest mean number)×100. The IC50 values were calculated by Median Equation and the IC curve was generated by Graphpad Prism V 5.03.
(§1) TC50 is referred to the toxicity in MT-2 cells by the compounds tested at 50% concentration; IC50 is referred to the inhibiting HIV-1IIIB replication in MT-2 cells by the compounds tested at 50% concentration; Therapeutic Index (TI)=TC50/IC50.

MT-2 cells = experiment: Compounds' cytotoxicity assay in MT-2 cells (CellTiter-Glo); type: cell-based; parameters: unit not given here; conditions: toxicity in MT-2 cells, 3 days
Protocol: 3. Method for Compounds' Cytotoxicity Assay:
The MT-2 cells are diluted to a needed concentration. 90 μl of the MT-2 cells suspension was added into 384-well plates containing 10 μl of the tested compounds. Compounds were dissolved in DMSO and tested as 11 points 3-fold serial dilutions. After addition of cells to compound plates, plates were placed to humidified 5% CO2 37 incubator for 3 days. The Luciferase activity was measured by CellTiter-Glo® Luminescent Cell Viability Assay kit (Promega Corp., WI, USA).
as §1

[1] = Human immunodeficiency virus 1, MT2, 72 h, inhibiting HIV-1IIIB replication in MT-2 cells, 3 days, read-out: IC50 (PM)
[2] = Human immunodeficiency virus 1, MT2, HIV replication in MT-2 cell (HIV-1IIIB) assay, read-out: IC50

SMILES: CC(C)C1=C2[C@H]3CC[C@@H]4[C@@]5(C)CC[C@H](OC(=O)CC(C)(C)C(=O)O)C(C)(C)[C@@H]5CC[C@@]4(C)[C@]3(C)CC[C@@]2(c2cc(=O)n(-c3ccc(F)cc3)n2C)CC1=O [Compound 98-3]
- IC50 (HIV-1IIIB; [1]): 0.46 nM
- TC50 (PM) (MT-2 cells): 42

SMILES: CC(C)C1=C2[C@H]3CC[C@@H]4[C@@]5(C)CC[C@H](OC(=O)CC(C)(C)C(=O)O)C(C)(C)[C@@H]5CC[C@@]4(C)[C@]3(C)CC[C@@]2(Cc2cc(=O)n(-c3ccc(Cl)cn3)n2C)CC1=O [98′-2]
- IC50 (HIV-1IIIB; [1]): 0.37 nM
- TC50 (PM) (MT-2 cells): 56

SMILES: CC(C)C1=C2[C@H]3CC[C@@H]4[C@@]5(C)CC[C@H](OC(=O)CC(C)(C)C(=O)O)C(C)(C)[C@@H]5CC[C@@]4(C)[C@]3(C)CC[C@@]2(Cc2nnc(-c3ccc(C#N)cn3)o2)CC1=O [Compound 22-15]
- IC50 (HIV-1IIIB; [1]): 2.1 nM
- TC50 (PM) (MT-2 cells): 34

SMILES: CC(C)C1=C2[C@H]3CC[C@@H]4[C@@]5(C)CC[C@H](OC(=O)CC(C)(C)C(=O)O)C(C)(C)[C@@H]5CC[C@@]4(C)[C@]3(C)CC[C@@]2(c2cc(=O)n(-c3ccc(Cl)cc3)n2C)CC1 [Compound 96-1]
- IC50 (HIV-1IIIB; [1]): 33 nM
- TC50 (PM) (MT-2 cells): 17

SMILES: CC(C)C1=C2[C@H]3CC[C@@H]4[C@@]5(C)CC[C@H](OC(=O)CC(C)(C)C(=O)O)C(C)(C)[C@@H]5CC[C@@]4(C)[C@]3(C)CC[C@@]2(Cc2nnc(-c3ccc(Br)cn3)o2)CC1=O [Compound 22-14]
- IC50 (HIV-1IIIB; [1]): ≤ 0.17 nM
- TC50 (PM) (MT-2 cells): 200

SMILES: CC(C)C1=C2[C@H]3CC[C@@H]4[C@@]5(C)CC[C@H](OC(=O)CC(C)(C)C(=O)O)C(C)(C)[C@@H]5CC[C@@]4(C)[C@]3(C)CC[C@@]2([C@@H](O)c2nnc(-c3ccc(Cl)cc3)n2CCN)CC1=O [Compound 164-1]
- IC50 (HIV-1IIIB; [2]): < 2 nM

SMILES: CC(C)C1=C2[C@H]3CC[C@@H]4[C@@]5(C)CC[C@H](OC(=O)CC(C)(C)C(=O)O)C(C)(C)[C@@H]5CC[C@@]4(C)[C@]3(C)CC[C@@]2(c2cc(=O)n(CC(=O)O)n2C)CC1=O [Compound 91-5]
- IC50 (PM) (HIV-1IIIB; inhibiting HIV-1IIIB replication in MT-2 cells, 3 days): 2110 nM
- TC50 (PM) (MT-2 cells): 160

SMILES: CCn1c([C@@]23CC[C@]4(C)[C@H](CC[C@@H]5[C@@]6(C)CC[C@H](OC(=O)CC(C)(C)C(=O)O)C(C)(C)[C@@H]6CC[C@]54C)C2=C(C(C)C)C(=O)C3)cc(=O)n1-c1ccc(Cl)cc1 [Compound 98-5]
- IC50 (HIV-1IIIB; [1]): ≤ 0.17 nM
- TC50 (PM) (MT-2 cells): 13

SMILES: CC(C)C1=C2[C@H]3CC[C@@H]4[C@@]5(C)CC[C@H](OC(=O)CC(C)(C)C(=O)O)C(C)(C)[C@@H]5CC[C@@]4(C)[C@]3(C)CC[C@@]2(c2cc(=O)n(-c3ccc(C#N)cc3)n2C)CC1=O [Compound 98-4]
- IC50 (HIV-1IIIB; [1]): 0.81 nM
- TC50 (PM) (MT-2 cells): 36

SMILES: CC(C)C1=C2[C@H]3CC[C@@H]4[C@@]5(C)CC[C@H](OC(=O)CC(C)(C)C(=O)O)C(C)(C)[C@@H]5CC[C@@]4(C)[C@]3(C)CC[C@@]2(c2c(Cl)c(=O)n(-c3ccc(Cl)cc3)n2CCN(C)C)CC1=O [Compound 156-2]
- IC50 (HIV-1IIIB; [2]): < 2 nM

SMILES: CC(C)C1=C2[C@H]3CC[C@@H]4[C@@]5(C)CC[C@H](OC(=O)CC(C)(C)C(=O)O)C(C)(C)[C@@H]5CC[C@@]4(C)[C@]3(C)CC[C@@]2([C@@H](O)c2nnc(-c3ccc(Cl)cn3)o2)CC1=O [Compound 127-3]
- IC50 (HIV-1IIIB; [1]): 0.6 nM
- TC50 (PM) (MT-2 cells): 33

SMILES: CC(C)C1=C2[C@H]3CC[C@@H]4[C@@]5(C)CC[C@H](OC(=O)CC(C)(C)C(=O)O)C(C)(C)[C@@H]5CC[C@@]4(C)[C@]3(C)CC[C@@]2(c2cc(=O)n(CCN(C)C)n2C)CC1 [Compound 89-3]
- IC50 (HIV-1IIIB; [2]): < 5 nM

SMILES: CC(C)C1=C2[C@H]3CC[C@@H]4[C@@]5(C)CC[C@H](OC(=O)CC(C)(C)C(=O)O)C(C)(C)[C@@H]5CC[C@@]4(C)[C@]3(C)CC[C@@]2(c2cc(=O)n(CCN(C)C)n2C)CC1=O [Compound 91-4]
- IC50 (HIV-1IIIB; [2]): < 2 nM

SMILES: CC(C)C1=C2[C@H]3CC[C@@H]4[C@@]5(C)CC[C@H](OC(=O)CC(C)(C)C(=O)O)C(C)(C)[C@@H]5CC[C@@]4(C)[C@]3(C)CC[C@@]2(Cc2nnc(-c3ccc(Cl)cc3)n2CCN)CC1=O [Compound 116-4]
- IC50 (HIV-1IIIB; [1]): 2.5 nM
- TC50 (PM) (MT-2 cells): 33

SMILES: CC(C)C1=C2[C@H]3CC[C@@H]4[C@@]5(C)CC[C@H](OC(=O)CC(C)(C)C(=O)O)C(C)(C)[C@@H]5CC[C@@]4(C)[C@]3(C)CC[C@@]2(Nc2nnc(-c3ccc(Cl)cn3)o2)CC1=O [Compound 141-2]
- IC50 (HIV-1IIIB; [1]): 0.26 nM
- TC50 (PM) (MT-2 cells): 24

SMILES: CC(C)C1=C2[C@H]3CC[C@@H]4[C@@]5(C)CC[C@H](OC(=O)CC(C)(C)C(=O)O)C(C)(C)[C@@H]5CC[C@@]4(C)[C@]3(C)CC[C@@]2(c2cc(=O)n(-c3ccc(Cl)cc3)n2CCN)CC1=O [Compound 155-1]
- IC50 (HIV-1IIIB; [1]): 1.6 nM
- TC50 (PM) (MT-2 cells): 78

SMILES: CC(C)C1=C2[C@H]3CC[C@@H]4[C@@]5(C)CC[C@H](OC(=O)CC(C)(C)C(=O)O)C(C)(C)[C@@H]5CC[C@@]4(C)[C@]3(C)CC[C@@]2(Cc2cc(=O)n(-c3ccc(Cl)cc3)n2C)CC1=O [98′-1]
- IC50 (HIV-1IIIB; [1]): ≤ 0.17 nM
- TC50 (PM) (MT-2 cells): 62

SMILES: CC(C)C1=C2[C@H]3CC[C@@H]4[C@@]5(C)CC[C@H](OC(=O)CC(C)(C)C(=O)O)C(C)(C)[C@@H]5CC[C@@]4(C)[C@]3(C)CC[C@@]2([C@H](O)c2nnc(-c3ccc(Cl)cn3)o2)CC1=O [Compound 127-4]
- IC50 (HIV-1IIIB; [1]): 38 nM
- TC50 (PM) (MT-2 cells): 200

SMILES: CC(C)C1=C2[C@H]3CC[C@@H]4[C@@]5(C)CC[C@H](OC(=O)CC(C)(C)C(=O)O)C(C)(C)[C@@H]5CC[C@@]4(C)[C@]3(C)CC[C@@]2(Cc2nnc(-c3ccc(Cl)cc3F)o2)CC1=O [Compound 22-13]
- IC50 (HIV-1IIIB; [1]): 1.7 nM
- TC50 (PM) (MT-2 cells): 35

SMILES: CC(C)C1=C2[C@H]3CC[C@@H]4[C@@]5(C)CC[C@H](OC(=O)CC(C)(C)C(=O)O)C(C)(C)[C@@H]5CC[C@@]4(C)[C@]3(C)CC[C@@]2(Cc2nnc(-c3ccc(F)cn3)o2)CC1=O [Compound 22-18]
- IC50 (HIV-1IIIB; [1]): 1.7 nM
- TC50 (PM) (MT-2 cells): 48

SMILES: CC(C)C1=C2[C@H]3CC[C@@H]4[C@@]5(C)CC[C@H](OC(=O)CC(C)(C)C(=O)O)C(C)(C)[C@@H]5CC[C@@]4(C)[C@]3(C)CC[C@@]2(Cc2nc(-c3ccc(Cl)cc3)no2)CC1=O [Compound 108-2]
- IC50 (HIV-1IIIB; [1]): 160 nM
- TC50 (PM) (MT-2 cells): 26

SMILES: CC(C)C1=C2[C@H]3CC[C@@H]4[C@@]5(C)CC[C@H](OC(=O)CC(C)(C)C(=O)O)C(C)(C)[C@@H]5CC[C@@]4(C)[C@]3(C)CC[C@@]2([C@@H](O)c2nnc(-c3ccc(Cl)cc3)n2CCN(C)C)CC1=O [Compound 165-1]
- IC50 (HIV-1IIIB; [2]): < 2 nM

SMILES: CC(C)C1=C2[C@H]3CC[C@@H]4[C@@]5(C)CC[C@H](OC(=O)CC(C)(C)C(=O)O)C(C)(C)[C@@H]5CC[C@@]4(C)[C@]3(C)CC[C@@]2(c2cc(=O)n(Cc3ccc(Cl)cc3)n2C)CC1=O [Compound 91-1]
- TC50 (PM) (MT-2 cells): 41

SMILES: C=C(C)[C@@H]1CC[C@]2(C(=O)O)CC[C@]3(C)[C@H](CC[C@@H]4[C@@]5(C)CC[C@H](OC(=O)CC(C)(C)C(=O)O)C(C)(C)[C@@H]5CC[C@]43C)[C@@H]12 [BVM, Bevirimat, reference compound]
- IC50 (HIV-1IIIB; Human immunodeficiency virus 1, MT2, 72 h, read-out: IC50 (PM)): 5 nM

SMILES: CC(C)C1=C2[C@H]3CC[C@@H]4[C@@]5(C)CC[C@H](OC(=O)CC(C)(C)C(=O)O)C(C)(C)[C@@H]5CC[C@@]4(C)[C@]3(C)CC[C@@]2(c2c(Cl)c(=O)n(-c3ccc(Cl)cc3)n2CCN)CC1=O [Compound 155-2]
- IC50 (HIV-1IIIB; [2]): < 2 nM

SMILES: CC(C)C1=C2[C@H]3CC[C@@H]4[C@@]5(C)CC[C@H](OC(=O)CC(C)(C)C(=O)O)C(C)(C)[C@@H]5CC[C@@]4(C)[C@]3(C)CC[C@@]2(c2c(Cl)c(=O)n(-c3ccc(Cl)cc3)n2C)CC1=O [Compound 98-8]
- IC50 (HIV-1IIIB; [2]): < 2 nM

SMILES: CC(C)C1=C2[C@H]3CC[C@@H]4[C@@]5(C)CC[C@H](OC(=O)CC(C)(C)C(=O)O)C(C)(C)[C@@H]5CC[C@@]4(C)[C@]3(C)CC[C@@]2(c2cc(=O)n(Cc3ccc(Cl)cc3)n2C)CC1=O [91′-1]
- TC50 (PM) (MT-2 cells): 22
